Several values for one entry are separate records, joined by “and”; a condition that tells them apart may be missing. Identical values can stand only once. Inconclusive results and toxic doses are left out. No stated cut-off is given here; in the data, active means T/C of 150% or more; inactive means T/C below 125%.
System: L1210 leukemia ip in BDF1 mice, survival T/C
Experiment: NCI In Vivo Anticancer Drug Screen. Data for tumor model L1210 Leukemia (intraperitoneal) in B6D2F1 (BDF1) mice
Settings: endpoint: mean survival time, higher = longer survival
In short: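 Value reflects the ratio of survival in compound-treated mice to survival in vehicle-treated controls, with both groups carrying the same transplanted tumor.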

[1] = dose: 100.0 mg/kg/injection, schedule: Q01DX001 (ip), vehicle: saline
[2] = dose: 200.0 mg/kg/injection, schedule: Q01DX001 (ip), vehicle: saline
[3] = dose: 400.0 mg/kg/injection, schedule: Q01DX001 (ip), vehicle: saline
[4] = dose: 100.0 mg/kg/injection, schedule: Q01DX009 (ip), vehicle: Klucel (hydroxypropylcellulose) (HPC)
[5] = dose: 100.0 mg/kg/injection, schedule: Q04DX003 (ip), vehicle: Klucel (hydroxypropylcellulose) (HPC)
[6] = dose: 200.0 mg/kg/injection, schedule: Q01DX009 (ip), vehicle: Klucel (hydroxypropylcellulose) (HPC)
[7] = dose: 200.0 mg/kg/injection, schedule: Q04DX003 (ip), vehicle: Klucel (hydroxypropylcellulose) (HPC)
[8] = dose: 400.0 mg/kg/injection, schedule: Q01DX009 (ip), vehicle: Klucel (hydroxypropylcellulose) (HPC)
[9] = dose: 400.0 mg/kg/injection, schedule: Q04DX003 (ip), vehicle: Klucel (hydroxypropylcellulose) (HPC)
[10] = dose: 100.0 mg/kg/injection, schedule: Q04DX002 (ip), vehicle: Klucel (hydroxypropylcellulose) (HPC)
[11] = dose: 50.0 mg/kg/injection, schedule: Q01DX009 (ip), vehicle: saline with Tween-80
[12] = dose: 100.0 mg/kg/injection, schedule: Q04DX003 (ip), vehicle: saline with Tween-80
[13] = dose: 200.0 mg/kg/injection, schedule: Q04DX003 (ip), vehicle: saline with Tween-80
[14] = dose: 100.0 mg/kg/injection, schedule: Q01DX009 (ip), vehicle: saline
[15] = dose: 200.0 mg/kg/injection, schedule: Q01DX009 (ip), vehicle: saline
[16] = dose: 400.0 mg/kg/injection, schedule: Q01DX009 (ip), vehicle: saline
[17] = dose: 100.0 mg/kg/injection, schedule: Q04DX003 (ip), vehicle: acetone
[18] = dose: 200.0 mg/kg/injection, schedule: Q04DX003 (ip), vehicle: acetone

Measured: T/C

CCCC(=O)Oc1ccc(C(C)(C)CC(C)(C)C)cc1
inactive: [1] 94 % of control | [2] 98 % of control | [3] 100 % of control

OCc1cc2ccccc2cc1O
inactive: [4] 97 % of control | [5] 97 % of control | [6] 106 % of control | [7] 94 % of control | [8] 108 % of control | [9] 89 % of control

CCN(CC)CCCC#CCN1CCCC1
inactive: dose: 50.0 mg/kg/injection, schedule: Q01DX009 (ip), vehicle: Klucel (hydroxypropylcellulose) (HPC) 92 % of control | [4] 100 % of control | [5] 91 % of control | [7] 100 % of control

CCCCC(CC)C(O)C1CCCCC1O (configuration not stated)
inactive: [4] 102 % of control | [5] 101 % of control | [6] 96 % of control | [7] 96 % of control | [8] 86 % of control | [9] 102 % of control

Cc1cc(C)c2c(c1)CC2NC(=O)Cc1ccccc1 (configuration not stated)
inactive: dose: 25.0 mg/kg/injection, schedule: Q04DX002 (ip), vehicle: Klucel (hydroxypropylcellulose) (HPC) 116 % of control | dose: 50.0 mg/kg/injection, schedule: Q04DX002 (ip), vehicle: Klucel (hydroxypropylcellulose) (HPC) 89 % of control | [10] 92 % of control

c1ccc(NC23CC4CC(CC(C4)C2)C3)cc1
inactive: [11] 102 % of control | dose: 100.0 mg/kg/injection, schedule: Q01DX009 (ip), vehicle: saline with Tween-80 97 % of control | [12] 94 % of control | dose: 200.0 mg/kg/injection, schedule: Q01DX009 (ip), vehicle: saline with Tween-80 88 % of control | [13] 92 % of control | dose: 300.0 mg/kg/injection, schedule: Q01DX009 (ip), vehicle: saline with Tween-80 98 % of control

COc1ccc([N+](=O)[O-])cc1NC(=O)c1ccc2c(c1)C(=O)OC2=O
inactive: dose: 6.25 mg/kg/injection, schedule: Q01DX009 (ip), vehicle: gum acacia 93 % of control | dose: 12.5 mg/kg/injection, schedule: Q01DX009 (ip), vehicle: gum acacia 88 % of control | dose: 25.0 mg/kg/injection, schedule: Q01DX009 (ip), vehicle: gum acacia 87 % of control | dose: 50.0 mg/kg/injection, schedule: Q01DX009 (ip), vehicle: gum acacia 86 % of control | dose: 200.0 mg/kg/injection, schedule: Q01DX009 (ip), vehicle: gum acacia 88 % of control

Cn1nnnc1/C(=C/c1ccccc1)C(=O)O
inactive: [12] 95 % of control | [13] 95 % of control | dose: 400.0 mg/kg/injection, schedule: Q04DX003 (ip), vehicle: saline with Tween-80 90 % of control

Cc1cc(C)c2c(c1)CCc1cc(C)cc(C)c1-2
inactive: [4] 100 % of control | [5] 93 % of control | [6] 93 % of control | [7] 93 % of control | [8] 100 % of control | [9] 93 % of control

COc1c(-c2cc(C)nc(NC#N)n2)c(O)c(OC)c2occc12
inactive: [10] 109 % of control | dose: 200.0 mg/kg/injection, schedule: Q04DX002 (ip), vehicle: Klucel (hydroxypropylcellulose) (HPC) 98 % of control | dose: 400.0 mg/kg/injection, schedule: Q04DX002 (ip), vehicle: Klucel (hydroxypropylcellulose) (HPC) 98 % of control

COc1ccc(NC(=O)Oc2ccc(NC(C)=O)cc2)c(OC)c1
inactive: [4] 95 % of control | [6] 97 % of control | [8] 92 % of control

CCCCCC(O)CCCCC
inactive: [14] 102 % of control | [15] 107 % of control | [16] 113 % of control

COn1c(/C=N/NC(N)=S)ccc1CN1C(=O)c2ccccc2C1=O
inactive: dose: 100.0 mg/kg/injection, schedule: Q01DX001 (ip), vehicle: Klucel (hydroxypropylcellulose) (HPC) 100 % of control | dose: 200.0 mg/kg/injection, schedule: Q01DX001 (ip), vehicle: Klucel (hydroxypropylcellulose) (HPC) 97 % of control | dose: 400.0 mg/kg/injection, schedule: Q01DX001 (ip), vehicle: Klucel (hydroxypropylcellulose) (HPC) 93 % of control

O=[N+]([O-])CC(OCCCO)C(Cl)(Cl)Cl (configuration not stated)
inactive: dose: 6.25 mg/kg/injection, schedule: Q01DX009 (ip), vehicle: saline with Tween-80 92 % of control | dose: 12.5 mg/kg/injection, schedule: Q01DX009 (ip), vehicle: saline with Tween-80 101 % of control | dose: 25.0 mg/kg/injection, schedule: Q01DX009 (ip), vehicle: saline with Tween-80 104 % of control | [11] 92 % of control and 91 % of control

NC(=O)C1CCCC12NC(=O)NC2=O (configuration not stated)
inactive: [4] 104 % of control | [5] 100 % of control | [6] 94 % of control | [7] 103 % of control | [8] 93 % of control | [9] 97 % of control

COC1OC(COC(C)=O)C(OC(C)=O)C(OC(C)=O)[CH]1[Hg][O]C(C)=O (configuration not stated)
inactive: dose: 6.25 mg/kg/injection, schedule: Q04DX003 (ip), vehicle: saline 96 % of control | dose: 12.5 mg/kg/injection, schedule: Q04DX003 (ip), vehicle: saline 98 % of control | dose: 25.0 mg/kg/injection, schedule: Q04DX003 (ip), vehicle: saline 92 % of control

O=S(=O)(C1=Cc2cccc3cccc1c23)c1ccccc1
inactive: dose: 100.0 mg/kg/injection, schedule: Q01DX001 (ip), vehicle: acetone 101 % of control | [14] 94 % of control | [17] 105 % of control | dose: 200.0 mg/kg/injection, schedule: Q01DX001 (ip), vehicle: acetone 92 % of control | [15] 96 % of control | [18] 105 % of control | dose: 400.0 mg/kg/injection, schedule: Q01DX001 (ip), vehicle: acetone 93 % of control | [16] 103 % of control | dose: 400.0 mg/kg/injection, schedule: Q04DX003 (ip), vehicle: acetone 97 % of control

Nc1nc2nc(I)[nH]c2c(=O)[nH]1
inactive: dose: 5.0 mg/kg/injection, schedule: Q01DX001 (ip), vehicle: saline 98 % of control | dose: 10.0 mg/kg/injection, schedule: Q01DX001 (ip), vehicle: saline 102 % of control | dose: 20.0 mg/kg/injection, schedule: Q01DX001 (ip), vehicle: saline 98 % of control | dose: 40.0 mg/kg/injection, schedule: Q01DX001 (ip), vehicle: saline 103 % of control

O=C(O)C(F)(F)C(F)(Cl)C(F)(F)C(F)(Cl)C(F)(F)C(F)(Cl)C(F)(F)Cl (configuration not stated)
inactive: [1] 96 % of control and 90 % of control | [2] 110 % of control and 93 % of control | [3] 107 % of control

Cc1ccc(N=Nc2ccc(C)cc2NC(=O)c2ccc(Cl)cc2Cl)cc1
inactive: [4] 88 % of control | [6] 97 % of control | [8] 89 % of control

Cc1cn(C2CC(O)C(CO)O2)c(=O)[nH]c1=O (configuration not stated)
inactive: dose: 50.0 mg/kg/injection, schedule: Q03HX024 (ip), vehicle: saline 100 % of control | dose: 100.0 mg/kg/injection, schedule: Q03HX024 (ip), vehicle: saline 100 % of control | dose: 200.0 mg/kg/injection, schedule: Q03HX024 (ip), vehicle: saline 98 % of control | dose: 400.0 mg/kg/injection, schedule: Q03HX024 (ip), vehicle: saline 100 % of control

C#CCCCCCCC#CCCCCCCC#C
inactive: [17] 100 % of control | [18] 110 % of control

— PubChem BioAssay AID248 (DTP/NCI, 2004)
